Consider five compounds from paper PMC12715805, “Screening apelin analogues and a small molecule agonist as effective cardiovascular therapeutics against reperfusion injury” (RSC Medicinal Chemistry, 2025).

One data set deals with T1, apelinR / human Gαi1 (Homo sapiens, UniProt P35414).
T1 sequence (P35414 1-380): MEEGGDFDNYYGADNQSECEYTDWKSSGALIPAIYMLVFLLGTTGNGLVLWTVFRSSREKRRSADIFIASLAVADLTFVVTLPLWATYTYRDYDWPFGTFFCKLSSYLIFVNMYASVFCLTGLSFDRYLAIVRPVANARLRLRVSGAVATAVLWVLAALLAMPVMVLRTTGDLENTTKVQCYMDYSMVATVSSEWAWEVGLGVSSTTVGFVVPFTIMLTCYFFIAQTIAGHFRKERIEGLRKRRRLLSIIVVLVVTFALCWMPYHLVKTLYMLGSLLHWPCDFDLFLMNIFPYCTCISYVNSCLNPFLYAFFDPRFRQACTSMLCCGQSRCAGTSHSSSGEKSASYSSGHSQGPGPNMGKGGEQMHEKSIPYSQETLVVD
Description: ebBRET Gαi1 activation. Type of data set: cell-based. The following applies: HEK293 cells transfected with apelinR, human Gαi1, Rap1GAP-RlucII, rGFP-CAAX; 10 min at 37 °C; mean ± SEM of 5 to 6 independent experiments; read-out: Gαi1 activation log EC50 (converted).

In the next data set the target is T2, apelinR / human Gαi2 (Homo sapiens, UniProt P35414).
T2 sequence (P35414 1-380): T1 sequence (P35414 1-380)
Description: ebBRET Gαi2 activation. Type of data set: cell-based. The following applies: HEK293 cells transfected with apelinR, human Gαi2, Rap1GAP-RlucII, rGFP-CAAX; 10 min at 37 °C; mean ± SEM of 5 to 6 independent experiments; read-out: Gαi2 activation log EC50 (converted).

The next data set deals with T3, apelinR / β-arrestin2 (Homo sapiens, UniProt P35414).
T3 sequence (P35414 1-380): T1 sequence (P35414 1-380)
Briefly: ebBRET β-arrestin2 recruitment. Type of data set: cell-based. The conditions noted are these: HEK293 cells transfected with apelinR, β-arrestin2-RlucII, rGFP-CAAX; 10 min at 37 °C; mean ± SEM of 5 to 6 independent experiments; read-out: β-arr2 recruitment log EC50 (converted). A general note: Activated receptors often draw arrestin, which recruitment assays turn into a signal.

Another data set addresses T4, apelinR / β-arrestin1 (Homo sapiens, UniProt P35414).
T4 sequence (P35414 1-380): T1 sequence (P35414 1-380)
Briefly: ebBRET β-arrestin1 recruitment. Type of data set: cell-based. The following applies: HEK293 cells transfected with apelinR, β-arrestin1-RlucII, rGFP-CAAX; 10 min at 37 °C; mean ± SEM of 5 to 6 independent experiments; read-out: β-arr1 recruitment log EC50 (converted).

The conditions of data set [1]: cited from earlier work. From the text:
The apelinergic system is a regulator in cardiovascular function and has shown positive effects on myocardial contractility, vasodilation,[4,5] angiogenesis[6] and heart rate.[7] Apelin promotes vasodilation by stimulating nitric oxide (NO) production, with apelin potentiating phosphorylation of Akt and eNOS,[5,8] while its signalling through Akt and ERK pathways also helps regulate cardiac contractility and provides protection against cardiac hypertrophy.[9] Apelin peptide hormones are derived from a 77-residue pre-propeptide and exist as three major isoforms, differentiated by their length, ...

The subject of the next data set is rats. The following applies: MI rat model; hypertension-induced cardiac dysfunction rat model; cited from earlier work. From the text:
Another avenue being investigated is the use of small molecule as agonists for the apelinR, such as, Bristol Myers Squibb's BMS-986224,[26,27] Amgen's AMG986,[28] and Davenport's CMF-019.[29] […] In contrast, the two non peptidic apelinR agonists, BMS-98622 ...

The subject of data set [2] is phospho-ERK1/2 (Thr202/Tyr204). Description: Western blot of ERK1/2 phosphorylation in left ventricular tissue after Langendorff ischemia–reperfusion. Details: species or system mouse. The following applies: n = 6 per group. Here is the method: (§1) Fig. 4 Phosphorylation of Akt and ERK1/2 in left ventricular tissue following ischemia–reperfusion (IR) and treatment with apelin analogues. Protein lysates were analyzed by Western blotting and band intensities quantified by densitometry. (A) Representative Western blots for phosphorylated Akt (p-Akt, Ser473), total Akt, phosphorylated ERK1/2 (p-ERK1/2, Thr202/Tyr204), and total ERK1/2. (B) Quantification of p-Akt/Akt. (C) Quantification of p-ERK1/2/ERK1/2. Data are expressed in arbitrary units relative to aerobic perfusion (control) and presented as mean ± SEM (n = 6 per group). Statistical analysis was performed using one-way ANOVA with Tukey's multiple comparisons test. Symbol key: *p < 0.05 vs. aerobic perfusion; **p < 0.05 vs. aerobic perfusion and placebo; ***p < 0.05 vs. all other groups.
(§2) Protein expression was assessed by Western blot analysis. Left ventricular tissue samples from mice in the Langendorff protocol were homogenized in RIPA buffer supplemented with protease and phosphatase inhibitors (Thermo Fisher Scientific, Waltham, MA, USA). Lysates were cleared by centrifugation at 12 000 × g for 15 min at 4 °C, and protein concentration was determined by the BCA assay (Pierce, Thermo Fisher Scientific, Waltham, MA, USA). Equal amounts of protein (20 μg per lane) were separated on 10% SDS-polyacrylamide gels and transferred to polyvinylidene difluoride (PVDF) membranes (Immobilon-P, MilliporeSigma, Burlington, MA, USA). Membranes were blocked for 1 h at room temperature in 5% bovine serum albumin (BSA) prepared in Tris-buffered saline with 0.1% Tween-20 (TBST) and incubated overnight at 4 °C with the following primary antibodies (all from Cell Signaling Technology, Danvers, MA, USA): phospho-Akt (Ser473; #4060), total Akt (#2920), phospho-ERK1/2 (Thr202/Tyr204; #9101), and total ERK1/2 (#4696), each diluted 1 : 1000 in blocking buffer. […] Band intensities were quantified using ImageJ software (National Institutes of Health, Bethesda, MD, USA), and phosphorylated protein levels were normalized to their corresponding total protein.
On the technique in general: Immunoblotting shows a protein as a band on a membrane.

Data set [3] deals with isolated mouse heart (ischemia–reperfusion injury). Description: Ex vivo Langendorff heart perfusion with ischemia–reperfusion.
Data set [4] has as its system wild-type male mice (C57BL/6). Description: Blood pressure lowering assay in anesthetized mice. Type of data set: in vivo, mouse. The procedure: The metabolically stable apelin analogues from each isoform, CbzPEG6–NMeLeu17A2 and NMeLeu13A2 along with the small molecule agonist, BMS-986224 (0.5 μmol kg^−1 infusion during 5 min for each compound), were tested for their BP lowering activity in anesthetized wild-type male mice (C57BL/6, 24–30 g). […] In contrast, the hypotensive effect of CbzPEG6–NMeLeu17A2 was observed immediately after infusion. This analogue reduced mean arterial pressure (MAP) by approximately 50% during the experiment, with the effect sustained for more than 30 minutes post-administration. Apelin can act on the endothelial layer of vasculature, leading to systemic changes in blood pressure by increasing the synthesis of nitric oxide (NO).[5] The effect of CbzPEG6–NMeLeu17A2 on […], which decreases the […] resistance by increasing eNOS activation and NO production through the activation of the PI3K/Akt signalling pathway on endothelial cells like other apelin analogues we tested in the previous studies.[5,11]
The blood pressure measurement and apelin injection method has been described in our previous research.[43] During the blood pressure testing, mice aged 12–14 weeks were anesthetized with 1.5% isoflurane in oxygen and monitored throughout the experiment. The blood pressure was measured using a PV loop catheter (model 1.2F, Transonic) […] into the left carotid artery. The monitor system (LabScribe 2.0. Scisense) recorded aortic blood pressure and heart rate. After a 20-minute baseline measurement, CbzPEG6–NMeLeu17A2, NMeLeu13A2, RI13, RI13A2, RI17, RI17A2, and BMS-986224 (0.5 μmol […] body weight) were diluted in saline and consistently infused for 5 min via the right jugular vein. For BMS-986224, 0.1% DMSO was added to saline to help with dilution. Blood pressure was continuously recorded for 60 minutes post-infusion.
3. Effects of APJ agonists on blood pressure
Figure S3. Different effects of apelin analog and receptor agonist on blood pressure and ischemia-reperfusion injury. A) the effect of CbzPEG6–NMeLeu17A2 (n=3) on mean arterial blood pressure (MAP), B) the effect of apelin 13 analog, NMeLeu13A2, on MAP (n=4). The effect of apelin 13 analog reverse enantiomers, C) RI13 (n=4) and D) RI13A2 (n=4), on MAP. The effect of apelin 17 reverse enantiomers, E) RI17 (n=4) and F) RI17A2 (n=4) on MAP. G) The effect of small molecule apelin receptor agonist BMS-986224 on blood pressure (n=4). The MAP recording between 50 and 60 minutes has been averaged and compared with their controls (placebo (n=4)). The vehicle for BMS-986224 is 0.1% DMSO (n=3). The arrow indicates the time when analogs were introduced. Values mean ±SEM and ****P<0.0001, compared to the control group.
(1 picture or pasted object on this page, not shown here)

Another data set deals with phospho-Akt (Ser473). Briefly: Western blot of Akt phosphorylation in left ventricular tissue after Langendorff ischemia–reperfusion. Details: species or system mouse. The following applies: n = 6 per group. The procedure: as §1, §2

Where a SMILES comes first, the peptide text is derived from it. [ ]: non-standard residue; d: D form. The star is where a group is joined. Phe(4-Br) = N[C@@H](Cc1ccc(Br)cc1)C(=O)O; PEG6 = NCCOCCOCCOCCOCCOCCOCCC(=O)O; NMeL = CN[C@@H](CC(C)C)C(=O)O; Nle = CCCC[C@H](N)C(=O)O; Cbz = O=C(OCc1ccccc1)*; Aib = CC(C)(N)C(=O)O

With `CSCC[C@H](NC(=O)[C@@H]1CCCN1C(=O)CNC(=O)[C@H](CCCCN)NC(=O)[C@H](Cc1c[nH]cn1)NC(=O)[C@@H](N)CO)C(=O)N1CCC[C@H]1C(=O)N[C@@H](Cc1ccccc1)C(=O)O` [apelin 8-mer C-terminal] (H-SHKGPMPF-OH), the results for the EC50 on apelinR / human Gαi1 and on apelinR / human Gαi2 were 490 nM and 347 nM, respectively.
For the compound `CCCC[C@H](NC(=O)[C@@H]1CCCN1C(=O)CNC(=O)[C@H](CCCCN)NC(=O)[C@H](Cc1c[nH]cn1)NC(=O)[C@H](CO)NC(=O)[C@H](CC(C)C)N(C)C(=O)[C@H](CCCNC(=N)N)NC(=O)[C@@H]1CCCN1C(=O)[C@H](CCCNC(=N)N)NC(=O)[C@@H]1CCC(=O)N1)C(=O)NC(C)(C)C(=O)N[C@@H](Cc1ccc(Br)cc1)C(=O)O` [NMeLeu13A2], the concentration giving a half-maximal response (EC50) on apelinR / β-arrestin2 was 1.15 nM; on apelinR / β-arrestin1, 1.23 nM; on apelinR / human Gαi1 it was 0.0339 nM; at apelinR / human Gαi2, 0.0219 nM. For the same compound, the “half-life in human plasma” value in [1] is about 4 h.
In the case of `CSCC[C@H](NC(=O)[C@@H]1CCCN1C(=O)CN)C(=O)N1CCC[C@H]1C(=O)N[C@@H](Cc1ccccc1)C(=O)O` [apelin-5-mer C-terminal] (H-GPMPF-OH), the EC50 is 1070 nM at apelinR / human Gαi1 and 1150 nM at apelinR / human Gαi2.
Regarding `COc1cccc(OC)c1-n1c(NS(=O)(=O)[C@@H](C)[C@@H](OC(C)C)c2ncc(C)cn2)nnc1-c1cncc(C)c1` [AM-812337], the “change in BP in a myocardial infarction (MI) rat model and a hypertension-induced cardiac dysfunction rat model (in words)” value in the data set on rats is listed as “do not induce any change in BP”.
With `CCCC[C@H](NC(=O)[C@@H]1CCCN1C(=O)CNC(=O)[C@H](CCCCN)NC(=O)[C@H](Cc1c[nH]cn1)NC(=O)[C@H](CO)NC(=O)[C@H](CC(C)C)N(C)C(=O)[C@H](CCCNC(=N)N)NC(=O)[C@@H]1CCCN1C(=O)[C@H](CCCNC(=N)N)NC(=O)[C@H](CCC(N)=O)NC(=O)[C@H](CCCNC(=N)N)NC(=O)[C@H](CCCNC(=N)N)NC(=O)[C@H](Cc1ccccc1)NC(=O)[C@H](CCCCN)NC(=O)CCOCCOCCOCCOCCOCCOCCNC(=O)OCc1ccccc1)C(=O)NC(C)(C)C(=O)N[C@@H](Cc1ccc(Br)cc1)C(=O)O` [CbzPEG6–NMeLeu17A2] ({Cbz-PEG6}-KFRRQRPR[NMeL]SHKGP[Nle][Aib][Phe(4-Br)]-OH; C-terminus assumed), the “ERK1/2 phosphorylation (p-ERK1/2/ERK1/2), mean difference versus NMeLeu13A2” value in data set [2] (left ventricular tissue after IR, arbitrary units, p < 0.0001) is listed as −1.991. Moreover, in data set [2] (left ventricular tissue after IR, p < 0.01 (NMeLeu13A2), p < 0.0001 (CbzPEG6–NMeLeu17A2)), the “ERK1/2 phosphorylation compared with control (in words)” value is “significantly increased ERK1/2 phosphorylation”. Moreover, the “ERK1/2 activation relative to IR (in words)” value in [2] (p < 0.0001) is on record as “significant increase in ERK1/2 activation”. Moreover, in [3] (1 μM in perfusion buffer for first 10 min of reperfusion after 30 min ischemia, compared to placebo, one-way ANOVA, Dunnett), the “cardioprotective effect / cardiac function recovery after ischemia–reperfusion (LVDP, RPP, max dP/dt, min dP/dt; in words)” value was “significant cardioprotective effect and positive inotropic effect”. The “cardiac recovery compared to the placebo treatment (left ventricle contractility, diastolic and systolic function)” value in data set [3] (1 μM, 30 min ischemia, 40 min reperfusion, n = 7) is “nearly doubled”. Also, the “t1/2 in human plasma” value in data set [1] is recorded as over 18 h. The “duration of hypotensive effect post-administration” value in [4] (0.5 μmol kg^−1 infusion during 5 min, anesthetized C57BL/6 mice) is listed as “more than 30 minutes”. In addition, in data set [4] (0.5 μmol kg^−1 infusion during 5 min, anesthetized C57BL/6 mice, n = 3), the “reduction of mean arterial pressure (MAP)” value was “approximately 50%”. Besides, in [4] (0.5 μmol kg^−1 infusion during 5 min via jugular vein, anesthetized wild-type male C57BL/6 mice, compared to vehicle control), the “hypotensive effect (BP lowering activity, in words)” value is “significant hypotensive effect”. The “Akt phosphorylation (p-Akt/Akt), mean difference relative to control” value in the data set with phospho-Akt (Ser473) (left ventricular tissue after IR and 1 μM treatment, arbitrary units relative to aerobic perfusion (control), both p < 0.0001) is given as −8.857. Further, in the data set on phospho-Akt (Ser473) (left ventricular tissue after IR, arbitrary units, p < 0.001), the “Akt phosphorylation (p-Akt/Akt), mean difference versus NMeLeu13A2” value was −4.018. The “Akt phosphorylation compared with IR (in words)” value in the data set on phospho-Akt (Ser473) (left ventricular tissue after IR, one-way ANOVA, Tukey) is “robust enhancement”.

One may read the EC50 as the concentration that produces a half-maximal response.
